According to BindingDB's records for doi:10.1021/acs.jmedchem.8b00159 (China Pharmaceutical University, 2018):

Assays:
[1] = molecular target: T1, Isocitrate dehydrogenase [NADP] cytoplasmic (Homo sapiens, UniProt O75874); test: Inhibition of IDH1 R132H mutant (unknown origin) assessed as reduction in NADPH consumption using alpha-KG as substrate incubated for 60 mins by diaphorase and resazurin dye based assay
Target sequence in this assay (O75874 2-414 R132H limits assumed): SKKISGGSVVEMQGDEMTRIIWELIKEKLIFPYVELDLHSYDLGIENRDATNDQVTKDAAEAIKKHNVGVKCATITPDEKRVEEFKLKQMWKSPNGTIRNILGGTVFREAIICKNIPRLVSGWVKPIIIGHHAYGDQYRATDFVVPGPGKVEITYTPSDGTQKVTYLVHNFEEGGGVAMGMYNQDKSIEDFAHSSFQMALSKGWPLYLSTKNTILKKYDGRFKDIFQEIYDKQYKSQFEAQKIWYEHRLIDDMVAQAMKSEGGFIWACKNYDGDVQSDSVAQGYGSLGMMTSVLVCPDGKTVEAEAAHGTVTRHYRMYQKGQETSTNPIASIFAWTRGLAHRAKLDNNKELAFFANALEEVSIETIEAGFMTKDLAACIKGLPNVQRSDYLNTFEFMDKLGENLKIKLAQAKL

[2] = molecular target: T1, Isocitrate dehydrogenase [NADP] cytoplasmic; test: Inhibition of IDH1 R132C mutant (unknown origin) assessed as reduction in NADPH consumption using alpha-KG as substrate incubated for 60 mins by diaphorase and resazurin dye based assay
Target sequence in this assay (O75874 2-414 R132C limits assumed): as the sequence (O75874 2-414 R132H limits assumed) above, with H131C counted along it

[3] = molecular target: T2, Isocitrate dehydrogenase [NADP], mitochondrial (Homo sapiens, UniProt P48735); test: Inhibition of IDH2 R140Q mutant (unknown origin) assessed as reduction in NADPH consumption using alpha-KG as substrate incubated for 60 mins by diaphorase and resazurin dye based assay
T2 sequence (P48735 whole entry): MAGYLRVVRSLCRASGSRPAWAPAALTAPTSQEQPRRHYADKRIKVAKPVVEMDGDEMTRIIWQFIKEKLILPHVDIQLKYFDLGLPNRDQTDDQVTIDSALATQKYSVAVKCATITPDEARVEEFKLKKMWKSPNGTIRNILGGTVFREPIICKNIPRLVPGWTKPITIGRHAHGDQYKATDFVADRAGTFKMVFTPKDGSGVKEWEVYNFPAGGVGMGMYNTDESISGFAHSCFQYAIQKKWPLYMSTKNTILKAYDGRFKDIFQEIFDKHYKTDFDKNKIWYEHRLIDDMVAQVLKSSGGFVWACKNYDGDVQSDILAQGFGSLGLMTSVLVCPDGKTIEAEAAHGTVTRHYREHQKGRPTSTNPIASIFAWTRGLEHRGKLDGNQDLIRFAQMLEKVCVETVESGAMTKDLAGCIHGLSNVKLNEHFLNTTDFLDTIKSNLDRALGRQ

Measured: IC50

CC(F)(F)c1cccc(-c2nc(NC3CCC(F)(F)C3)nc(NC3CCC(F)(F)C3)n2)n1 (configuration not stated) [US10028961, Compound 105]
< 50 nM: all assays above

FC1(F)CCC(Nc2nc(NC3CCC(F)(F)CC3)nc(-c3cncc(C(F)(F)F)n3)n2)CC1 [US10028961, Compound 160]
< 50 nM: all assays above

FC1(F)CC(Nc2nc(NC3CC(F)(F)C3)nc(-c3nc(C(F)(F)F)cs3)n2)C1 [US10028961, Compound 128]
< 50 nM: all assays above

C[C@@H](Nc1nc(N[C@H](C)C2CC2)nc(-n2ccc(C(F)(F)F)n2)n1)C1CC1 [US10028961, Compound 121]
< 50 nM: all assays above
